Test results taken from patent EP4700041A1, “NOVEL PEPTIDE HAVING ACTIVITY OF RETARDING DEGRADATION OF HYALURONIC ACID AND USES THEREOF” (Caregen Co., Ltd., priority 2023, dated 2026).
Ends that are not written are not given here.

What was measured:
[1] = Thermal stability of the peptide (HPLC area); format: physicochemical; conditions: 1000 ppm solution, 50°C vs 25°C, 72 hours, FIG. 7a
Method: The evaluation of thermal stability was performed as follows. A diluted solution of the peptide of Preparation Example 1 at a concentration of 1000 ppm was prepared, dispensed into 50 mL conical tubes, and placed in an incubator at 25°C and 50°C. After 72 hours, 1 mL of each sample was filtered through a 0.22 µm filter. The area values were compared at 25°C based on pH 7 measured by HPLC.

[2] = pH stability of the peptide (HPLC area); format: physicochemical; conditions: 1000 ppm solution, pH 4 to pH 10, HPLC area compared with pH 7; FIG. 7b
Method: The evaluation of pH stability was performed as follows. A diluted solution of the peptide of Preparation Example 1 at a concentration of 1000 ppm was prepared, and the initial pH value of the solution was measured (pH = 3.21). 0.5 M NaOH was added so as to titrate the pH of the solution to pH 4, pH 7, and pH 10, respectively. Each sample was filtered through a 0.22 µm filter. The area values were compared based on pH 7 measured by HPLC.

[3] = Delay of hyaluronic acid degradation by reactive oxygen species in BDDE-cross-linked filler (Congo Red diffusion, absorbance 500 nm); conditions: 37°C, FIG. 6
Method: A 1,4-Butanediol diglycidyl ether (BDDE)-cross-linked hyaluronic acid filler with or without the peptide of Preparation Example 1 was prepared, and Congo Red and hyaluronidase (HAdase) as absorbing dyes were prepared. 20 µL of 1 mM Congo Red was added to each 1.5 mL eppendorf tube, and 100 µL each of the peptide-free filler (control filler) and the peptide-containing filler were added on the absorbing dye. Each was treated with 350 µL of 500 mM hydrogen peroxide (H2O2). Each tube was placed in an incubator at 37°C, and 100 µL of the sample supernatant was collected at time points of 1 hour, 3 hours, 6 hours, 24 hours, 48 hours, and 72 hours and transferred to 96-wells. The absorbance was measured at 500 nm using a microplate reader (SpectraMax iD3, Molecular devices, USA). As above, BDDE-cross-linked hyaluronic acid filler samples with or without the peptide were prepared, and the degree of degradation of hyaluronic acid filler by reactive oxygen species was compared depending on the presence or absence of peptide. The degree of degradation of hyaluronic acid filler was measured by the change in absorbance due to the diffusion of dye. That is, the principle that the flowability of the sample increases when hyaluronic acid is degraded by reactive oxygen species and thus the diffusion of the dye increases was utilized.

[4] = Delay of hyaluronic acid degradation by reactive oxygen species in hyaluronic acid solution (viscosity, rheometer); conditions: 1.5 wt% hyaluronic acid solution in PBS; peptide 100 ppm, 1000 ppm, 5000 ppm; 500 mM H2O2; 60 and 180 minutes; FIG. 5
Method: Hyaluronic acid was dissolved in PBS to a concentration of 1.5 wt% and hydrated, and 10 g of this solution was dispensed into each conical tube. Peptide solutions were added to the dispensed hyaluronic acid solutions so that the final peptide concentrations were 0 ppm (no addition), 100 ppm, 1000 ppm, and 5000 ppm, respectively. 2 mL of 500 mM hydrogen peroxide (H2O2) was added to each. Viscosity was measured using a rheometer (single shear stress) by sampling at 0, 30, 60, and 180 minutes to compare the viscosity values according to the peptide concentration. As above, 1.5 wt% hyaluronic acid solutions containing peptides at each concentration were treated with hydrogen peroxide to maintain the degradation reaction by reactive oxygen species for 60 and 180 minutes, thereby degrading hyaluronic acid. After the degradation reaction, the viscosity of each hyaluronic acid solution was measured to confirm the degradation delaying efficacy.

thermal stability [1]: stable
pH stability [2]: stable
degradation delay improved ([3]; BDDE-cross-linked hyaluronic acid filler with peptide vs peptide-free control filler, 24 hours after treatment with 500 mM hydrogen peroxide): ≥ 50%
effect of delaying degradation ([3]; BDDE-cross-linked hyaluronic acid filler with peptide, treated for 48 hours with 500 mM hydrogen peroxide): 85%
Sequence: KIWNLEPSRNGT [SEQ ID NO: 1, KIWNLEPSRNGT]
degradation of hyaluronic acid by reactive oxygen species (viscosity) [4]: degradation of hyaluronic acid was delayed as the concentration of peptide increased
